{"source": "patent US20180169030A1", "about": "“DRUG CARRIER AND METHOD OF FABRICATING THE SAME” (priority 2016, published 2018)", "test_system": "Hepatoma cells", "conditions": "75 ppm boron-10", "method": "The drug carrier prepared in the above embodiments applied to the boron neutron capture therapy for cells was tested. The test method is described in detail below. Referring to FIG. 8, Tsing Hua Open-pool Reactor (THOR) 200 was used. An acrylic plate 204 was used as a carrier of 96-well plate 210. Hepatoma cells 206 were placed in the 96-well plate. Thermal neutrons 208 were used to irradiate the 96-well plate 210. An acrylic cube 202 was placed behind the carrier to slow down the thermal neutrons 208, so as to shorten the irradiation time.\nGroup I represents culture medium. Group J represents a boric acid solution containing 75 ppm of boron-10. Group K represents the drug carrier covering boric acid containing 75 ppm of boron-10. Group L represents the drug carrier without covering boric acid. The vertical axis is cell number percentage (%). The thermal neutron irradiation time was 27.67 minutes. After the thermal neutron irradiation, changes in cell numbers of each group were tested using the cell toxicity analysis kit (Wst-1 assay) after 24 hours.", "data": [{"substance": "boric acid", "values": [{"measurement": "part of mortality rate caused by toxicity of boric acid / by drug carrier (not by irradiation)", "result": 40, "unit": "%"}, {"measurement": "part of mortality rate caused by irradiation of thermal neutron", "setting": "irradiation time 27.67 minutes", "result": 15, "unit": "%"}, {"measurement": "mortality rate after irradiation of thermal neutron", "setting": "irradiation time 27.67 minutes, Wst-1 after 24 hours", "result": 55, "unit": "%"}]}]}
